Molecular target: T1, p32 (C1qBP) (Homo sapiens, UniProt Q07021)
T1 construct: Human recombinant p32 (OriGene)
T1 sequence (Q07021 74-282): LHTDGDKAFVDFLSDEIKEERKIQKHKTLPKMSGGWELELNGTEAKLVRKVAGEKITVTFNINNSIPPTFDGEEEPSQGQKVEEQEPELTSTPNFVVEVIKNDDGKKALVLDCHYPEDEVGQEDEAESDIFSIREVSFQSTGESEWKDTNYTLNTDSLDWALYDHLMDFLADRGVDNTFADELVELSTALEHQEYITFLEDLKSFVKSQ
Assay: fluorescence polarization competition with 5-FAM-labelled cyclic LyP-1 peptide; protein thermal shift with […] M36
Type: binding

## O=C(NCCCNC(=O)Nc1cccc(C2=NCCN2)c1)Nc1cccc(C2=NCCN2)c1 [M36]
  p32 thermal shift stability change: P32 protein stability was altered by M36 as observed by a shift in the melting curve of the protein

Reference: publication PMC5648515, “A novel small molecule inhibitor of p32 mitochondrial protein overexpressed in glioma” (Journal of Translational Medicine, 2017)
